Reference: patent publication US20200060276A1, “THIAZOLE COMPOUND AND HERBICIDE” (OAT Agrio Co., Ltd., priority 2017, published 2020)

Columns and labels:
Assay type in all cases: in vivo
Cyperus microiria = assay: Test for Herbicidal Effect in Flooding Treatment (#1), CYMIC; conditions: flooding treatment at seeding, dose 2 kg/ha, visual observation on day 21
Description: (#1) Test for Herbicidal Effect in Flooding Treatment: Styrol cups each having an opening diameter of 8 cm (about 52 cm^2) were respectively filled with soil (45 ml) which had been passed through a sieve (2 mm). Water (about 115 ml) was mixed with the soil such that the soil was flooded. After the soil stood still for 24 hours, Monochoria vaginalis, Echinochloa crus-galli (L.) P. Beauv. var. formosensis Ohwi, Cyperus difformis (umbrella sedge), and Scirpus juncoides were seeded. Each of the compounds of the present invention was dissolved in acetone, and the obtained product was then diluted with water containing Tween 80®. Each of the resultant chemical solutions was dropped on the entire surface of an associated one of treatment sections, so that each section was treated with 1 ml of the respective chemical solution (a dose of 2 kg/ha). After the treatment, the plants were grown in a glasshouse. On day 21, a survey was conducted on the herbicidal activity by visual observation, and evaluation was made according to the following criteria. 0: Growth inhibition effect is less than 10%. 1: Growth inhibition effect is equal to or greater than 10%, and less than 30%. 2; Growth inhibition effect is equal to or greater than 30%, and less than 50%. 3: Growth inhibition effect equal to or greater than 50%, and less than 70%. 4: Growth inhibition effect is equal to or greater than 70%, and less than 90%. 5: Growth inhibition effect is equal to or greater than 90%, or complete withering is achieved. ECHDG=Echinochloa crus-galli (L.) P. Beauv. var. formosensis Ohwi, MONVA=Monochoria vaginalis, SCIJU=Scirpus juncoides, CYMIC=Cyperus microiria.

[1] = test system: Echinochloa crus-galli (L.) P. Beauv. var. formosensis Ohwi; assay: Test for Herbicidal Effect in Flooding Treatment (#1), ECHDG; conditions: flooding treatment at seeding, dose 2 kg/ha, visual observation on day 21
Method in brief: (§1)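 Visual scores from 0 (<10% inhibition) to 5 (≥90% or complete withering) were taken 21 days after treatment of glasshouse-grown plants. Seeds were sown in soil flooded for 24 h beforehand, and compound was applied dropwise onto the surface at 2 kg/ha as an acetone solution diluted in water with Tween 80.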

Scirpus juncoides = assay: Test for Herbicidal Effect in Flooding Treatment (#1), SCIJU; conditions: flooding treatment at seeding, dose 2 kg/ha, visual observation on day 21
Method in brief: as §1

[2] = test system: Echinochloa crus-galli (L.) P. Beauv. var. formosensis Ohwi; assay: Test for Herbicidal Effect in Flooding Treatment (#2), ECHDG at 2-2.5 leaf stage; conditions: for ECHDG (2-2.5L) #2 herbicidal effect (growth inhibition grade): flooding treatment at 2-2.5 leaf stage, dose 0.2 kg/ha, visual observation on day 21
Method in brief: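 Flooded muddy soil was seeded with the weed, and at 2–2.5 leaf stage compound in acetone/Tween 80 water was dropped on the water surface at 0.2 kg/ha. Plants were kept in a glasshouse and scored visually on day 21 from 0 (<10% growth inhibition) to 5 (≥90% or complete withering).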

Monochoria vaginalis = assay: Test for Herbicidal Effect in Flooding Treatment (#1), MONVA; conditions: flooding treatment at seeding, dose 2 kg/ha, visual observation on day 21
Method in brief: as §1

COc1cc(F)ccc1CS(=O)(=O)c1ncc(Cl)s1 [Compound 1C-3]
CYMIC #1 herbicidal effect (growth inhibition grade) (Cyperus microiria): 5 (Growth inhibition effect is equal to or greater than 90%, or complete withering is achieved)
ECHDG #1 herbicidal effect (growth inhibition grade) [1]: 5 (Growth inhibition effect is equal to or greater than 90%, or complete withering is achieved)
SCIJU #1 herbicidal effect (growth inhibition grade) (Scirpus juncoides): 5 (Growth inhibition effect is equal to or greater than 90%, or complete withering is achieved)
ECHDG (2-2.5L) #2 herbicidal effect (growth inhibition grade) [2]: 4 (Growth inhibition effect is equal to or greater than 70%, and less than 90%)

COc1cc(Cl)ccc1CS(=O)(=O)c1ncc(Cl)s1 [Compound 1C-4]
CYMIC #1 herbicidal effect (growth inhibition grade) (Cyperus microiria): 5 (Growth inhibition effect is equal to or greater than 90%, or complete withering is achieved)
ECHDG #1 herbicidal effect (growth inhibition grade) [1]: 5 (Growth inhibition effect is equal to or greater than 90%, or complete withering is achieved)
SCIJU #1 herbicidal effect (growth inhibition grade) (Scirpus juncoides): 5 (Growth inhibition effect is equal to or greater than 90%, or complete withering is achieved)
ECHDG (2-2.5L) #2 herbicidal effect (growth inhibition grade) [2]: 5 (Growth inhibition effect is equal to or greater than 90%, or complete withering is achieved)

CCOc1c(Cl)cccc1CS(=O)(=O)c1ncc(Cl)s1 [Compound 1C-10]
CYMIC #1 herbicidal effect (growth inhibition grade) (Cyperus microiria): 5 (Growth inhibition effect is equal to or greater than 90%, or complete withering is achieved)
ECHDG #1 herbicidal effect (growth inhibition grade) [1]: 5 (Growth inhibition effect is equal to or greater than 90%, or complete withering is achieved)
SCIJU #1 herbicidal effect (growth inhibition grade) (Scirpus juncoides): 5 (Growth inhibition effect is equal to or greater than 90%, or complete withering is achieved)
ECHDG (2-2.5L) #2 herbicidal effect (growth inhibition grade) [2]: 5 (Growth inhibition effect is equal to or greater than 90%, or complete withering is achieved)

CCOc1cc(F)ccc1CS(=O)(=O)c1ncc(Cl)s1 [Compound 1C-12]
CYMIC #1 herbicidal effect (growth inhibition grade) (Cyperus microiria): 5 (Growth inhibition effect is equal to or greater than 90%, or complete withering is achieved)
ECHDG #1 herbicidal effect (growth inhibition grade) [1]: 5 (Growth inhibition effect is equal to or greater than 90%, or complete withering is achieved)
SCIJU #1 herbicidal effect (growth inhibition grade) (Scirpus juncoides): 5 (Growth inhibition effect is equal to or greater than 90%, or complete withering is achieved)
ECHDG (2-2.5L) #2 herbicidal effect (growth inhibition grade) [2]: 4 (Growth inhibition effect is equal to or greater than 70%, and less than 90%)

CCOc1cc(C)ccc1CS(=O)(=O)c1ncc(Cl)s1 [Compound 1C-13]
CYMIC #1 herbicidal effect (growth inhibition grade) (Cyperus microiria): 5 (Growth inhibition effect is equal to or greater than 90%, or complete withering is achieved)
ECHDG #1 herbicidal effect (growth inhibition grade) [1]: 5 (Growth inhibition effect is equal to or greater than 90%, or complete withering is achieved)
SCIJU #1 herbicidal effect (growth inhibition grade) (Scirpus juncoides): 5 (Growth inhibition effect is equal to or greater than 90%, or complete withering is achieved)
ECHDG (2-2.5L) #2 herbicidal effect (growth inhibition grade) [2]: 5 (Growth inhibition effect is equal to or greater than 90%, or complete withering is achieved)

CCOc1cc(C(F)(F)F)ccc1CS(=O)(=O)c1ncc(Cl)s1 [Compound 1C-14]
CYMIC #1 herbicidal effect (growth inhibition grade) (Cyperus microiria): 5 (Growth inhibition effect is equal to or greater than 90%, or complete withering is achieved)
ECHDG #1 herbicidal effect (growth inhibition grade) [1]: 5 (Growth inhibition effect is equal to or greater than 90%, or complete withering is achieved)
SCIJU #1 herbicidal effect (growth inhibition grade) (Scirpus juncoides): 5 (Growth inhibition effect is equal to or greater than 90%, or complete withering is achieved)
ECHDG (2-2.5L) #2 herbicidal effect (growth inhibition grade) [2]: 4 (Growth inhibition effect is equal to or greater than 70%, and less than 90%)

CCOc1ccc(Cl)cc1CS(=O)(=O)c1ncc(Cl)s1 [Compound 1C-16]
CYMIC #1 herbicidal effect (growth inhibition grade) (Cyperus microiria): 5 (Growth inhibition effect is equal to or greater than 90%, or complete withering is achieved)
ECHDG #1 herbicidal effect (growth inhibition grade) [1]: 5 (Growth inhibition effect is equal to or greater than 90%, or complete withering is achieved)
SCIJU #1 herbicidal effect (growth inhibition grade) (Scirpus juncoides): 5 (Growth inhibition effect is equal to or greater than 90%, or complete withering is achieved)
inhibition at 200 g/ha ([2]; Echinochloa crus-galli, 504 h, flooding treatment (#2), ECHDG at 2-2.5 leaf stage, dose of 0.2 kg/ha, day 21, visual observation, read-out: growth inhibition effect): ≥ 90%
ECHDG (2-2.5L) #2 herbicidal effect (growth inhibition grade) [2]: 5 (Growth inhibition effect is equal to or greater than 90%, or complete withering is achieved)

COc1cccc(OC)c1CS(=O)(=O)c1ncc(Cl)s1 [Compound 1C-127]
CYMIC #1 herbicidal effect (growth inhibition grade) (Cyperus microiria): 5 (Growth inhibition effect is equal to or greater than 90%, or complete withering is achieved)
ECHDG #1 herbicidal effect (growth inhibition grade) [1]: 5 (Growth inhibition effect is equal to or greater than 90%, or complete withering is achieved)
SCIJU #1 herbicidal effect (growth inhibition grade) (Scirpus juncoides): 5 (Growth inhibition effect is equal to or greater than 90%, or complete withering is achieved)

O=S(=O)(Cc1c(F)cc(F)cc1OC(F)F)c1ncc(Br)s1 [Compound 1C-156]
MONVA #1 herbicidal effect (growth inhibition grade) (Monochoria vaginalis): 5 (Growth inhibition effect is equal to or greater than 90%, or complete withering is achieved)
ECHDG #1 herbicidal effect (growth inhibition grade) [1]: 5 (Growth inhibition effect is equal to or greater than 90%, or complete withering is achieved)
SCIJU #1 herbicidal effect (growth inhibition grade) (Scirpus juncoides): 5 (Growth inhibition effect is equal to or greater than 90%, or complete withering is achieved)
ECHDG (2-2.5L) #2 herbicidal effect (growth inhibition grade) [2]: 5 (Growth inhibition effect is equal to or greater than 90%, or complete withering is achieved)

O=S(=O)(Cc1c(OC(F)F)ccc(Cl)c1F)c1ncc(Br)s1 [Compound 1C-157]
MONVA #1 herbicidal effect (growth inhibition grade) (Monochoria vaginalis): 5 (Growth inhibition effect is equal to or greater than 90%, or complete withering is achieved)
ECHDG #1 herbicidal effect (growth inhibition grade) [1]: 5 (Growth inhibition effect is equal to or greater than 90%, or complete withering is achieved)
SCIJU #1 herbicidal effect (growth inhibition grade) (Scirpus juncoides): 5 (Growth inhibition effect is equal to or greater than 90%, or complete withering is achieved)
ECHDG (2-2.5L) #2 herbicidal effect (growth inhibition grade) [2]: 5 (Growth inhibition effect is equal to or greater than 90%, or complete withering is achieved)

O=S(=O)(Cc1c(OCC(F)(F)F)cccc1C(F)(F)F)c1ncc(Br)s1 [Compound 1C-162]
MONVA #1 herbicidal effect (growth inhibition grade) (Monochoria vaginalis): 5 (Growth inhibition effect is equal to or greater than 90%, or complete withering is achieved)
ECHDG #1 herbicidal effect (growth inhibition grade) [1]: 5 (Growth inhibition effect is equal to or greater than 90%, or complete withering is achieved)
SCIJU #1 herbicidal effect (growth inhibition grade) (Scirpus juncoides): 5 (Growth inhibition effect is equal to or greater than 90%, or complete withering is achieved)
ECHDG (2-2.5L) #2 herbicidal effect (growth inhibition grade) [2]: 5 (Growth inhibition effect is equal to or greater than 90%, or complete withering is achieved)

O=S(=O)(Cc1c(F)cccc1OCC(F)(F)C(F)F)c1ncc(Br)s1 [Compound 1C-164]
MONVA #1 herbicidal effect (growth inhibition grade) (Monochoria vaginalis): 5 (Growth inhibition effect is equal to or greater than 90%, or complete withering is achieved)
ECHDG #1 herbicidal effect (growth inhibition grade) [1]: 5 (Growth inhibition effect is equal to or greater than 90%, or complete withering is achieved)
SCIJU #1 herbicidal effect (growth inhibition grade) (Scirpus juncoides): 5 (Growth inhibition effect is equal to or greater than 90%, or complete withering is achieved)
ECHDG (2-2.5L) #2 herbicidal effect (growth inhibition grade) [2]: 5 (Growth inhibition effect is equal to or greater than 90%, or complete withering is achieved)

CC(c1c(F)cccc1OCC(F)(F)C(F)F)S(=O)(=O)c1ncc(Br)s1 (stereo not shown) [Compound 1C-165]
MONVA #1 herbicidal effect (growth inhibition grade) (Monochoria vaginalis): 5 (Growth inhibition effect is equal to or greater than 90%, or complete withering is achieved)
ECHDG #1 herbicidal effect (growth inhibition grade) [1]: 5 (Growth inhibition effect is equal to or greater than 90%, or complete withering is achieved)
SCIJU #1 herbicidal effect (growth inhibition grade) (Scirpus juncoides): 5 (Growth inhibition effect is equal to or greater than 90%, or complete withering is achieved)
ECHDG (2-2.5L) #2 herbicidal effect (growth inhibition grade) [2]: 3 (Growth inhibition effect equal to or greater than 50%, and less than 70%)
